{
  "source": "patent US20190192521A1",
  "about": "“Methods of Treating Arid1A-Mutated Cancers With HDAC6 Inhibitors and EZH2 Inhibitors” (The Wistar Institute of Anatomy and Biology, priority 2016, published 2019)",
  "key": {"[1]": {"test_system": "ARID1A-mutated OVISE cells", "experiment": "growth inhibition with or without p53 knockdown, OVISE", "assay_type": "cell-based, human", "protocol": "Growth inhibition was calculated based on integrated density as measured in NIH ImageJ, and values were normalized to vehicle control. Data is representative of 3 independent experiments. Error bars represent S.E.M. p-value calculated via two-tailed t-test.\n(§1) Colony formation assays were performed as follows. Cell lines were infected with lentivirus pLKO.1-shRNAs or pLKO.1-control with puromycin selection marker. Infected cells were selected with 1 μg/mL of puromycin for 72 hours and the selected cells were seeded in 12-well or 24-well plates. Cell medium was changed every three days with appropriate drug doses for 14 days or until control wells became confluent. Colonies were washed twice with PBS and fixed with 10% methanol and 10% acetic acid in distilled water. Fixed colonies were stained with 0.005% crystal violet. Integrated density was measured using NIH ImageJ software."}, "OVCA429 cells": {"test_system": "OVCA429 cells", "experiment": "colony formation assay, control and ARID1A CRISPR OVCA429 cells", "assay_type": "cell-based, human", "conditions": "1.25 μM", "protocol": "FIG. 72 illustrates control and ARID1A CRISPR OVCA429 cells treated with or without 1.25 μM ACY1215 in a colony formation assay.\nFIG. 73 illustrates the quantification of ARID1A CRISPR OVCA429 cells treated with or without 1.25 μM ACY1215 in a colony formation assay; n=4 independent experiments.\nGeneration of ARID1A CRISPR OVCA429 cells. OVCA429 cells were transfected with CRISPR-ARID1A (pSpCas9(BB)-2A-Puro (PX459)). The ARID1A gRNA sequence is: 5′-[…]-3′ (SEQ ID NO:33). Fugene6 transfection reagent (Promega) was used as per manufacturer's specifications. Clonal populations for the loss of ARID1A expression were screened through immunoblot.\nas §1"}, "[2]": {"test_system": "cells with BRG1 knockdown", "experiment": "ACY1215 sensitivity after knockdown of SWI/SNF subunit BRG1", "assay_type": "cell-based", "protocol": "Retrovirus production and transduction were performed as described in Aird et al. Cell Reports 2013, 3, 1252-1265, and Bitler et al. Nat. Med. 2015, 21, 231-238. Phoenix cells were used to package the viruses. Lentivirus was packaged using the Virapower Kit from Life Technologies (Carlsbad, Calif.) following the manufacturer's instructions, and as described Aird et al. Cell Reports 2013, 3, 1252-1265, and Bitler et al. Nat. Med. 2015, 21, 231-238. pLKO.1-shARID1As (TRCN0000059090), pLKO.1-shp53 (TRCN0000010814 and TRCN0000003755), pLKO.1-shHDAC6 (TRCN0000004839 and TRCN0000004841), pLKO.1-shCaspase 3 (TRCN0000003550), shCaspase 9 (TRCN0000003583), shCaspase 8 (TRCN0000003577 and TRCN0000003579)and shBRG1 (TRCN0000015549 and TRCN0000015552) were obtained from Open Biosystems. A shRNA to luciferase was used as a control. […] Cells infected with viruses encoding the puromycin resistance gene were selected in 1 μg/ml puromycin."}, "[3]": {"test_system": "ARID1A wild-type RMG1 cells", "experiment": "apoptosis (Annexin V, cleaved caspase 3, cleaved PARP p85) in ARID1A wild-type cells", "assay_type": "cell-based, human", "conditions": "1.25 μM", "protocol": "Expression of apoptotic markers cleaved caspase 3 and cleaved PARP p85 by immunoblot. GAPDH expression was used as a loading control.\nFor immunoblotting, protein was isolated as described in Bitler et al. Nat. Med. 2015, 21, 231-238. Briefly, protein was extracted with RIPA buffer (150 mM NaCl, 1% NP40, 0.5% sodium deoxycholate, 0.1% SDS, 50 mM Tris pH 8.0, and 1 mM PMSF). Protein was separated on a SDS-PAGE and transferred to PVDF membrane. For immunoblot of p53 post-translation modifications, cells were treated with a proteasome inhibitor MG132 (10 μM) to stabilize p53 protein.\nAnnexin V and mitochondria membrane potentials were measured as follows. Phosphatidylserine externalization was detected using an Annexin V staining kit (Life Technologies) following the manufacturer's instructions. To measure change in mitochondria membrane potential cells were treated with 200 nM of tetramethylrhodamine, ethyl ester (TMRE; Abcam) for 15 min at 37° C. Annexin V and TMRE-positive cells were detected using the LSR18 and analyzed with the FlowJo software module."}, "[4]": {"test_system": "Arid1a−/−/Pik3caH1047R clear cell ovarian tumours", "experiment": "Arid1a−/−/Pik3caH1047R genetic clear cell ovarian tumour mouse model", "assay_type": "in vivo, mice", "conditions": "50 mg/kg, 21 days", "text": "Arid1a−/−/Pik3caH1047R genetic clear cell ovarian tumour mouse model. All experiments were approved by IACUC. Transgenic mice with latent mutations in Arid1a and Pik3ca were generated by crossing Arid1aflox/floxmice (kindly provided by Dr. Wang, U. Michigan and crossed onto a C57BL/6J background for 9 generations) with R26-Pik3caH1047R mice carrying inducible Pik3ca mutations (Jackson Laboratory, Jax #016977). Gao et al, 2008, Proc Natl Acad Sci USA 105, 6656-6661. Administration of intrabursal adeno-Cre, performed as previously reported, Scarlett et al. 2012, J Exp Med 209, 495-506, induce ovarian clear cell carcinoma in ˜45 days, which is similar to a previous report. All mice were maintained in specific pathogen-free barrier facilities. To induce tumorigenesis, 6-10 weeks old Pik3caH1047R/Arid1aflox/flox female mice were intrabursally injected adenovirus-Cre as previously described. Mice were randomized and treated with ACY1215 (50 mg/kg) or vehicle control for 21 days as previously published. Following treatment mice were sacrificed and the reproductive tracts were removed. The changes in volumes of tumours formed on the injected ovary were calculated against the contrary side non-injected ovary from the same mice."}},
  "data": [
    {"smiles": "O=C(CCCCCCNC(=O)c1cnc(N(c2ccccc2)c2ccccc2)nc1)NO", "note": "[rocilinostat, 2-(diphenylamino)-N-(7-(hydroxyamino)-7-oxoheptyl)pyrimidine-5-carboxamide]", "values": [
      {"measurement": "effect of p53 knockdown on apoptosis and growth inhibition induced by the compound", "setting": "[1]", "value": "significantly impaired the apoptosis and growth inhibition"},
      {"measurement": "effect of ARID1A knockout on sensitivity", "setting": "OVCA429 cells", "value": "significantly increased the sensitivity"},
      {"measurement": "effect of BRG1 knockdown on sensitivity", "setting": "[2]", "value": "did not increase"},
      {"measurement": "apoptosis in ARID1A wild type cells", "setting": "[3]", "value": "did not induce a significant increase in apoptosis"},
      {"measurement": "markers of apoptosis in ARID1A wild-type cells with ARID1A knockdown", "setting": "[3]; shARID1A", "value": "significantly increased markers of apoptosis"},
      {"measurement": "tumour growth", "setting": "[4]", "value": "significantly suppressed the tumour growth"}
    ]}
  ]
}
